Results reported in patent publication US20160166576A1, “SUBSTITUTED AMIDOPYRAZOLE INHIBITORS OF INTERLEUKIN RECEPTOR-ASSOCIATED KINASES (IRAK-4)” (MERCK SHARP & DOHME CORP., priority 2013, published 2016).
Where two headings read alike, the source gives them in different places.

Key:
[1] = Rat pharmacokinetics after PO and SC dosing; type: in vivo, female Lewis rats; settings: for Cmax: rat, fed female Lewis rats, plasma; for Cmax compared to that of Compound A: rats, at either 30 mpk SC dosing or 30 mpk PO dosing or both
Description: Pharmacokinetic Properties
Pharmacokinetic parameters were determined following PO and SC dosing at 30 mg/kg in fed female Lewis rats. Compounds were formulated for both PO and SC dosing in 50/50 (v/v) 50% captisol/50 mM citrate buffer (pH 4). Plasma samples obtained from dosed animals were prepared for analysis by means of a single step protein precipitation technique by adding 200 μL of acetonitrile to 50 μL aliquots of individual subject samples. Samples were mixed by vortex for homogeneity and then subjected to centrifugation at 3500 rpm for 10 min. The supernatant (200 μL) was collected and injected into the LC-MS/MS for analysis. Pharmacokinetic parameters were calculated using established non-compartmental methods.

IRAK4 = biological target: T1, IRAK4 (Homo sapiens, UniProt Q9NWZ3); experiment: IRAK4 IMAP kinase activity assay (fluorescence polarization); type: biochemical; settings: 1 nM GST tagged IRAK4, 100 μM ATP, 1 hour at 25° C.
T1 construct: GST; purchased SignalChem
T1 sequence (Q9NWZ3 1-460): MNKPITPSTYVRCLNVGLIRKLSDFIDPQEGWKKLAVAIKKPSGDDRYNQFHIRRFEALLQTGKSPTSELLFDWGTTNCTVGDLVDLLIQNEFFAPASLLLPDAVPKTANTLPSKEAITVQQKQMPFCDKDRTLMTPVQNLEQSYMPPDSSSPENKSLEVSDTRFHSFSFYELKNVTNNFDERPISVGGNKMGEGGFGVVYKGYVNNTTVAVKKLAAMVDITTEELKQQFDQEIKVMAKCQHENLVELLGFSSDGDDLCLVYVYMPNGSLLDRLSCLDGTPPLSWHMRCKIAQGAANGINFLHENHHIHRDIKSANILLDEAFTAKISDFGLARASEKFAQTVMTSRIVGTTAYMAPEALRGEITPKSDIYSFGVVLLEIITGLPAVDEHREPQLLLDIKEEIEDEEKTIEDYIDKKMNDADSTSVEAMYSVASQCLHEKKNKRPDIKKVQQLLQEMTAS
Description: Determination of IRAK4 Kinase Activity
The kinase activity of IRAK4 is determined by its ability to catalyze the phosphorylation of a fluorescent polypeptide substrate. The extent of phosphorylation is measured using IMAP technology (Molecular Devices) where the phosphorylated fluorescent substrate binds to the large M(III)-based nanoparticles which reduces the rotational speed of the substrate and thus increases its fluorescent polarization (FP).
Procedure: A 20 μl reaction mixture contains 10 mM TriHC1, pH 7.2, 1 nM GST tagged IRAK4 (SignalChem), 100 nM fluorescent peptide substrate (RP7030, Molecular Devices), 100 μM ATP, 1 mM DTT, 2 mM MgCl2, and 0.01% Tween 20. The reaction is initiated by the addition of ATP. After incubation for 1 hour at 25° C., 60 μl of Progressive IMAP Reagent (Molecular Devices) is added to stop the reaction. Change in RP7030's FP is determined by a FP reader (EnVision Multilabel Reader, Perkin Elmer).

[2] = 30 mg/kg PO, read-out: Rat PK, 30 mpk PO, Cmax
[3] = 30 mg/kg SC, read-out: Rat PK, 30 mpk SC, Cmax

Cmax [1, 2]	Cmax [1, 3]	Cmax compared to that of Compound A [1]	IC50 (IRAK4)	SMILES
8.6 µM	1.5 µM	superior	1 nM	Cc1ccc(-n2nc(N3CCN([C@@H]4CCS(=O)(=O)C4)CC3)cc2NC(=O)c2cnn3cccnc23)nc1 [Compound 8, N-[3-{4-[(3R)-1,1-dioxidotetrahydrothiophen-3-yl]piperazin-1-yl}-1-(5-methylpyridin-2-yl)-1H-pyrazol-5-yl]pyrazolo[1,5-a]pyrimidine-3-carboxamide]
7.7 µM	8.1 µM	superior	2 nM	Cc1ccc(-n2nc(N3CCN([C@H]4CCS(=O)(=O)C4)CC3)cc2NC(=O)c2cnn3cccnc23)nc1 [Compound 9, N-[3-{4-[(3S)-1,1-dioxidotetrahydrothiophen-3-yl]piperazin-1-yl}-1-(5-methylpyridin-2-yl)-1H-pyrazol-5-yl]pyrazolo[1,5-a]pyrimidine-3-carboxamide]
4.3 µM	16.1 µM	superior	4 nM	Cc1ccc(-n2nc(N3CCN(CC(N)=O)CC3)cc2NC(=O)c2cnn3cccnc23)nc1 [Compound 16, N-{3-[4-(2-amino-2-oxoethyl)piperazin-1-yl]-1-(5-methylpyridin-2-yl)-1H-pyrazol-5-yl}pyrazolo[1,5-a]pyrimidine-3-carboxamide]
1 µM	3.3 µM	–	2 nM	Cc1ccc(-n2nc(N3CCN(C)CC3)cc2NC(=O)c2cnn3ccccc23)nc1 [Compound A, reference compound]
